Columns and labels:
[1] = biological target: T1, UGT1A6 (Homo sapiens, UniProt P19224); assay: Inhibition of UGT1A6 (N-acetylserotonin glucuronidation) in human liver microsomes; format: in vitro ADME; conditions: substrate N-acetylserotonin; HLMs; average ± standard error
T1 construct: tissue XenoTech XTreme 200; host or cells: pooled human liver microsomes
Procedure: (§1) The ability of selamariscina A to inhibit the metabolism of six UGT enzyme probe substrates was evaluated using previously developed methods with minor modifications. The microsomal incubation was performed by dividing the non-interactive substrate cocktail sets (set A included SN-38 for UGT1A1, CDCA for UGT1A3 and TFP for UGT1A4 while set B included N-SER for UGT1A6, MPA for UGT1A9 and NX for UGT2B7) (Table 2). In brief, HLMs (0.25 mg/mL) were activated by incubation in the presence of alamethicin (25 µg/mL) for 15 min on ice. After the addition of UGT probe substrates and inhibitor (0, 0.5, 2, 5, 20 and 50 μM), the incubation mixtures were pre-incubated at 37 °C for 5 min. […] After centrifugation at 18,000 g (5 min, 4 °C), aliquots of supernatants were analyzed by LC–MS/MS. […]
(§2) All metabolites and the IS were separated on a Kinetex XB-C18 column (100 × 2.10 mm, 2.6 μm, 100 Å; Phenomenex, Torrance, CA, USA) and analyzed using a Shimadzu LCMS 8060 triple-quadrupole mass spectrometer coupled with a Nexera X2 ultra high-performance liquid chromatography system (Shimadzu, Kyoto, Japan) equipped with an electrospray ionization interface. […] Quantitation was conducted in selected reaction monitoring (SRM) modes with the precursor-to-product ion transition for each metabolite (Table 1 and Table 2).
(§3) We analyzed the data with Shimadzu LabSolution LC–MS software. […]

[2] = biological target: T2, UGT2B7 (Homo sapiens, UniProt P16662); assay: Inhibition of UGT2B7 (naloxone glucuronidation) in human liver microsomes; format: in vitro ADME; conditions: substrate naloxone; HLMs
T2 construct: tissue XenoTech XTreme 200; host or cells: pooled human liver microsomes
Procedure: as §1, §2, §3

[3] = biological target: T3, CYP2C8 (Homo sapiens, UniProt P10632); conditions: read-out: IC50, CYP2C8, known inhibitor; cited from earlier work
T3 sequence (P10632 1-490): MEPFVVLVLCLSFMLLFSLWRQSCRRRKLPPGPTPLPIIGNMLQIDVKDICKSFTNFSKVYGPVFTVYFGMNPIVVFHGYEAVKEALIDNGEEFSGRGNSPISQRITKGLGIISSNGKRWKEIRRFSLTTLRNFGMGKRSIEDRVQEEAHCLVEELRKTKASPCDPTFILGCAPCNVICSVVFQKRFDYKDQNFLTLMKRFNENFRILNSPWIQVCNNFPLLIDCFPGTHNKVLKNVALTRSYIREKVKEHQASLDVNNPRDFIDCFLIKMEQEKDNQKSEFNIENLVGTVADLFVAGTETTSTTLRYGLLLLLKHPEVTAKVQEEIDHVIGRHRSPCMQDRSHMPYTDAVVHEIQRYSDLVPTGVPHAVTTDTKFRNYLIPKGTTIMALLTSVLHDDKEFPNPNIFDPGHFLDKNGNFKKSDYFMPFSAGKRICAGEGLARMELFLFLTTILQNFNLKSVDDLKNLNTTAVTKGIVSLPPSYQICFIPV

T2 sequence (P16662 24-529): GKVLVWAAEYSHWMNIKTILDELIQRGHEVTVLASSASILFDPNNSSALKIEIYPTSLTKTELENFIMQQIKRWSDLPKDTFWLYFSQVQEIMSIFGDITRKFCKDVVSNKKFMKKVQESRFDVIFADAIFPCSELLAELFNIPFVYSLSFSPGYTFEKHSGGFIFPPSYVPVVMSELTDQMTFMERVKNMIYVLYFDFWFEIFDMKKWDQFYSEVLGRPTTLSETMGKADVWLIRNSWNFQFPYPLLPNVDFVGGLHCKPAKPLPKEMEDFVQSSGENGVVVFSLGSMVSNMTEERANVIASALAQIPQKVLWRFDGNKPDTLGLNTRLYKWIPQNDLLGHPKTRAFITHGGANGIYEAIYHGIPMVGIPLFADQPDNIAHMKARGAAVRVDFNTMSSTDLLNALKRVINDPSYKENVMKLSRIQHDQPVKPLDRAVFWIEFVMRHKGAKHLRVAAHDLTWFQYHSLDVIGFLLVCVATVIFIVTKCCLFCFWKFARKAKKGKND
T1 sequence (P19224 27-532): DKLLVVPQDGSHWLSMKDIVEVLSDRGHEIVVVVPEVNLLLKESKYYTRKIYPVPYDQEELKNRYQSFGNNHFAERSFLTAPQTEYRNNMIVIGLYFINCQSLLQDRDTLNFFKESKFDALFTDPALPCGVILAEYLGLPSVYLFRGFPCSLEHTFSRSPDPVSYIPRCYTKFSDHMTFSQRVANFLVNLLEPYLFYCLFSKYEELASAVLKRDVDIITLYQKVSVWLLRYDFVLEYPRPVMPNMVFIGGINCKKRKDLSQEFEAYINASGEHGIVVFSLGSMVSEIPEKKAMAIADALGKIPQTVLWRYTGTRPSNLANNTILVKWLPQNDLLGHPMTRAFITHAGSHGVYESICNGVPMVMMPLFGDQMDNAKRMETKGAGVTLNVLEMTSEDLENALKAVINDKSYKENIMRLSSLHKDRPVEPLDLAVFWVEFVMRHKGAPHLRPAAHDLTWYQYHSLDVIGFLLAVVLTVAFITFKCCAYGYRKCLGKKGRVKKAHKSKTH

SMILES | IC50 [1] | IC50 [2] | IC50 [3]
O=C1CC(c2cc(-c3c(O)ccc4c(=O)cc(-c5ccc(O)cc5)oc34)c(O)cc2O)Oc2cc(O)cc(O)c21 (stereo not drawn) [selamariscina A] | 46.1 ± 11.7 µM | > 50 µM | 
CC(C)(O)c1ccccc1CC[C@@H](SCC1(CC(=O)O)CC1)c1cccc(/C=C/c2ccc3ccc(Cl)cc3n2)c1 [montelukast, reference compound] |  |  | 20 nM
